Measurements as given in patent publication US6603023B2 (priority 1996, dated 2003).
pIC50: −log10 of the molar value. “And” between values parts separate entries of the source, which are not always exact repeats. Equal entries are not always repeated. Structures can show the parent of a compound that is named as a salt. Where two headings read alike, the source gives them in different places.

Legend:
[1] = system: CCRF-CEM human T-cell acute lymphoblastic leukemia cell line; test: XTT cytotoxicity (cell growth inhibition), CCRF-CEM
Outline: (§1)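 Growth was read by XTT/PMS reduction over 4 h at 37 °C after 72 h of compound treatment, with absorbance at 450 nm and 630 nm. CCRF-CEM, P388 and their resistant sublines, grown continuously with their selecting drugs, were cultured in duplicate at 5×10^4 cells/mL. The medium was RPMI-1640 with 10% FBS.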

CCRF-CEM/Taxol® = test: cells; assay type: cell-based, human; settings: Homo sapiens, CCRF-CEM, 72 h
Outline: as §1

CCRF-CEM/VBL100 = test: cells; assay type: cell-based, human
Outline: as §1

CCRF-CEM/VM1 = test: cells; assay type: cell-based, human
Outline: as §1

Human CCRF-CEM Xenograft = test: CCRF-CEM xenograft in scid mice; assay type: in vivo, CB-17 scid mice
[2] = system: PC-3 Human Prostate Carcinoma; test: PC-3 xenograft; assay type: in vivo, nude mice; settings: dEpoB 30 mg/kg 18 hr i.v. infusion, Taxol 16 mg/kg 6 hr infusion, VBL 2 and VP-16 25 mg/kg i.v. inj
[3] = system: A549 Human Lung Carcinoma; test: A549 xenograft; assay type: in vivo, nude mice; settings: Q2D x 3: dEpoB 30 mg/kg 18 hr i.v. infusion, Taxol 15 mg/kg 6 hr infusion, VBL 2 and VP-16 25 mg/kg i.v. inj
[4] = Homo sapiens, CCRF-CEM, 72 h, Table 1A, XTT
[5] = Homo sapiens, CCRF-CEM, Table 5, single determinations
[6] = Homo sapiens, CCRF-CEM, read-out: IC50 (mean ± of determinations, in parentheses), Table 5
[7] = dose 0.2 i.p. QD d7-10,14,15, day 12
[8] = dose 0.2 i.p. QD d7-10,14,15, day 17
[9] = dose 0.2 i.p. QD d7-10,14,15, day 22
[10] = dose 0.4 i.p. QD d7-10,14,15, day 12
[11] = dose 0.4 i.p. QD d7-10,14,15, day 17
[12] = dose 0.4 i.p. QD d7-10,14,15, day 22

Which results are given for `CC[C@]1(O)C[C@@H]2CN(CCc3c([nH]c4ccccc34)[C@@](C(=O)OC)(c3cc4c(cc3OC)N(C)[C@H]3[C@@](O)(C(=O)OC)[C@H](OC(C)=O)[C@]5(CC)C=CCN6CC[C@]43[C@@H]65)C2)C1` [Vinblastine, Vinblastine sulfate]?
pIC50 ([1]; Homo sapiens, CCRF-CEM): 9.20; pIC50 [1, 4]: 8.20; pIC50 ([1]; Homo sapiens, CCRF-CEM, Table 2): 9.17; pIC50 [1, 5]: 9.10; pIC50 [1, 6]: 9.20; pIC50 ([1]; Table 5, single determinations): 9.22 and 9.30; pIC50 (CCRF-CEM/Taxol®): 8.16; pIC50 (CCRF-CEM/VBL100; Homo sapiens, CCRF-CEM): 6.48; pIC50 (CCRF-CEM/VBL100; [4]): 6.48; pIC50 (CCRF-CEM/VBL100; Homo sapiens, CCRF-CEM, Table 2, CCRF-CEM/VLB): 6.33; pIC50 (CCRF-CEM/VBL100; Homo sapiens, CCRF-CEM, Table 5, CCRF-CEM/VLB, single determinations): 6.36; pIC50 (CCRF-CEM/VBL100; [6]): 6.48; pIC50 (CCRF-CEM/VBL100; Table 5, CCRF-CEM/VLB, single determinations): 6.66 and 6.47; pIC50 (CCRF-CEM/VM1; [4]): 9.39; pIC50 (CCRF-CEM/VM1; Homo sapiens, CCRF-CEM, Table 2, CCR-CEM/VM-1): 9.17; pIC50 (CCRF-CEM/VM1; [5]): 9.31; pIC50 (CCRF-CEM/VM1; [6]): 9.39; pIC50 (CCRF-CEM/VM1; Table 5, single determinations): 9.41 and 9.44; Average weight change (Human CCRF-CEM Xenograft; dose 0.2 i.p. QD d7-10,14,15, day 7): +0.2; Average tumor volume (control = 1.00) (Human CCRF-CEM Xenograft; [7]): 0.45; Average weight change (Human CCRF-CEM Xenograft; [7]): −0.8; Average tumor volume (control = 1.00) (Human CCRF-CEM Xenograft; [8]): 0.25; Average weight change (Human CCRF-CEM Xenograft; [8]): −1.5; Average tumor volume (control = 1.00) (Human CCRF-CEM Xenograft; [9]): 0.29; Average weight change (Human CCRF-CEM Xenograft; [9]): −0.3; Average weight change (Human CCRF-CEM Xenograft; dose 0.4 i.p. QD d7-10,14,15, day 7): −0.1; Average tumor volume (control = 1.00) (Human CCRF-CEM Xenograft; [10]): 0.31; Average weight change (Human CCRF-CEM Xenograft; [10]): −1.4; Average tumor volume (control = 1.00) (Human CCRF-CEM Xenograft; [11]): 0.27; Average weight change (Human CCRF-CEM Xenograft; [11]): −1.8; Average tumor volume (control = 1.00) (Human CCRF-CEM Xenograft; [12]): 0.30; Average weight change (Human CCRF-CEM Xenograft; [12]): −0.7; Average Body Weight (change), Day 9 [2]: +1.4 g; Average Body Weight (change), Day 11 [2]: +2.1 g; Average Body Weight (change), Day 13 [2]: +3.0 g; Average Tumor Size (TC), Day 9 [2]: 0.37 TC; Average Tumor Size (TC), Day 11 [2]: 0.13 TC; Average Tumor Size (TC), Day 13 [2]: 0.03 TC; Tumor Disappearance [2]: 1/3; Average Body Weight, Day 5 ([2]; initial weight): 23.5 g; Average Body Weight (change), Day 13 [3]: +2.3 g; Average Body Weight (change), Day 15 [3]: +3.2 g; Tumor Disappearance [3]: 2/3; Average Tumor Size, Day 11 ([3]; control 96): 11 mm^3; Average Tumor Size, Day 13 ([3]; control 128): 11 mm^3; Average Tumor Size, Day 15 ([3]; control 306): 11 mm^3; Average Tumor Size, Day 17 ([3]; control 553): 7 mm^3; Average Body Weight, Day 7 ([3]; initial weight): 25.5 g
